{"source": "patent US9765114B2", "about": "“Method for cancer immunotherapy” (International Institute of Cancer Immunology, Inc., priority 2005, dated 2017)", "key": {"HLA-A24": {"test_system": "HLA-A24", "conditions": "HLA-A24-restricted manner; cited from earlier work"}, "HLA-A24 antigen": {"test_system": "HLA-A24 antigen", "conditions": "compared with the wild type peptide; cited from earlier work"}, "splenocytes": {"test_system": "splenocytes", "test": "Immunization of a mouse (2), mouse IFN gamma ELISPOT of splenocytes", "format": "in vivo, HLA-A2402/K^b transgenic mouse", "conditions": "splenocytes 7 days after immunization; peptides added at 10^-6 M, 18 hours; FIG. 8", "protocol": "The peptide of Example 1 was adjusted to 40 mg/ml in DMSO. Then, the solution (32.5 μl) was mixed with water for injection (540 μl). Further, the resulting solution (550 μl) was mixed with Freund's incomplete adjuvant (700 μl) (Montanide ISA51 (registered trademark)) (SEPPIC, Inc, Paris, France) using a glass syringe to prepare water-in-oil emulsion.\nThe resulting preparation (200 μl) was injected into an HLA-A2402/K^b transgenic mouse intradermally in the base of the tail for immunization. 7 days after initiation of the experiment, spleen was removed and splenocytes were prepared in a conventional manner (WO 02/47474). Then, tests were conducted using mouse IFN gamma ELISPOT set (Enzyme—Linked Immunospot) (Fujisawa, catalog No. BD-551083). The test was conducted according to the instructions attached to the set.\nAccording to the attached instructions, the plate was washed and the number of spots was detected using KS Elispot Research System (Carl Zeiss). Elispot method is known as an alternative to a test for cytotoxic activity (J. Immunological Methods, 1995, 181, 45-54)."}, "[1]": {"test_system": "HLA-A2402 expressing VA13/A2402 cells pulsed with or without peptide", "test": "Test using human PBMC: IFN-γ ELISA of peptide-stimulated CD8 positive T cells", "format": "cell-based", "conditions": "Day 21 T cells, FIG. 9", "protocol": "Peripheral blood (50 ml) was taken using heparinized vacuum blood collection tube from HLA-A24 positive healthy subjects. The blood diluted two fold with PBS (−) was overlayered on Ficoll-Paque (Amersham Biosciences), the amount of which was half of the amount of the blood, followed by centrifugation for 20 minutes at 2000 rpm. A cell layer containing the peripheral blood mononuclear cells (PBMC) was collected and 3-4 times the amount of PBS (−) was added thereto, followed by centrifugation for 10 minutes at 1800 rpm. The cell pellet was washed twice with PBS (−) and PMBC was collected.\nThe PMBC was suspended in medium for culturing lymphocyte (RPMI1640: AIM V=1:1, NEAA, 10% FCS) and cultured in a culture flask for two hours and nonadherent cells were collected. Using CD8^+ T cell isolation kit II (Miltenyi Biotec), CD8 positive T cells were collected among the nonadherent cells. The adherent cells were cultured in the medium for culturing lymphocyte containing GM-CSF (1000 U/ml) and IL-4 (1000 U/ml) for 7 days. The floating cells were collected as an antigen-presenting cell fraction containing dendritic cells (DC). The collected cells were frozen for preservation until they are used for experiments.\nThe DC fraction prepared as above was pulsed with the peptide of Example 1 (50 μg/ml) by incubating the cells with the peptide in AIM-V medium containing mitomycin (50 μg/ml) for one hour. After washing with the medium three times, the peptide of Example 1 was further added (50 μg/ml) for one hour pulse to prepare antigen-presenting cells. On Day 0, antigen-presenting cells pulsed with the peptide were added to CD8 positive T cells to conduct the first stimulation, and the cell culture was started in medium for culturing lymphocyte containing IL-7 (10 ng/ml) using 24-well plate. On Day 7, T cells were collected and after washing them, peptide stimulation using antigen-presenting cells pulsed with the peptide was conducted in a similar way to the first stimulation. On the next day (Day 8), IL-2 was added so that the concentration was 50 U/ml. On Day 14, T cells were collected and the third stimulation was conducted in a similar way to the first or second stimulation. On the next day (Day 15), IL-2 was added so that the concentration was 50 U/ml. On Day 21, T cells were collected and frozen for preservation.\n1×10^5 cells of T cells of Day 21 were added to 2×10^4 cells of HLA-A2402 expressing VA13/A2402 cells pulsed with or without each of the peptides (wild type peptide (WT1235-243), modified peptide (WT1235-243(2M→Y)) or the peptide of Example 1) and 18 hours later, the supernatant was collected to determine the amount of IFN-γ using ELISA.\nThe results of the peptide specific reactivity of T cells stimulated with the synthetic peptide of Example 1 were shown in FIG. 9. […]"}}, "note": "No end group written: not given here.", "data": [{"substance": "CMTWNQMNL [WT1235-243, peptide spanning positions 235 to 243 of the cancer antigen protein WT1]", "values": [{"measurement": "activity to induce CTLs", "setting": "HLA-A24", "value": "having an activity to induce CTLs in HLA-A24-restricted manner"}]}, {"substance": "CYTWNQMNL [WT1235-243 (2M→Y)]", "values": [{"measurement": "binding affinity for the HLA-A24 antigen", "setting": "HLA-A24 antigen", "value": "higher binding affinity for the HLA-A24 antigen than the wild type peptide"}]}, {"substance": "H-Cys(H-Cys-OH)-Tyr-Thr-Trp-Asn-Gln-Met-Asn-Leu-OH (H-C(Cys)YTWNQMNL-OH; also: Cys1 disulfide-linked to a free Cys-OH (cystine)) [Example 1, derivative of WT1235-243 (2M→Y) modified with cystine]", "values": [{"measurement": "HLA-A24 specific cell-mediated immunity, IFN gamma ELISPOT spots", "setting": "splenocytes", "value": "could induce HLA-A24 specific cell-mediated immunity which cross reacted with the wild type peptide"}, {"measurement": "reactivity (IFN-γ) of T cells stimulated with the peptide to cells pulsed without the peptide", "setting": "[1]; VA13/A2402 cells not pulsed, 18 hours", "value": "did not react"}, {"measurement": "reactivity (IFN-γ) of T cells stimulated with the peptide to cells pulsed with the modified peptide (WT1235-243 (2M→Y))", "setting": "[1]; VA13/A2402 cells pulsed with WT1235-243 (2M→Y), 18 hours", "value": "reacted"}, {"measurement": "reactivity (IFN-γ) of T cells stimulated with the peptide to cells pulsed with the wild type peptide (WT1235-243)", "setting": "[1]; VA13/A2402 cells pulsed with WT1235-243, 18 hours", "value": "reacted"}, {"measurement": "reactivity (IFN-γ) of T cells stimulated with the peptide to cells pulsed with the peptide of Example 1", "setting": "[1]; VA13/A2402 cells pulsed with the peptide of Example 1, 18 hours", "value": "sufficiently reacted"}]}]}
